Reference: ChEMBL document CHEMBL1130608, “Synthesis and anticancer evaluation of certain gamma-aryloxymethyl-alpha-methylene-gamma-phenyl-gamma-butyrolactones” (1998)

Tested on: SNB-19
Experiment: In vitro anticancer activity against SNB-19 CNS cancer cell line
Format: functional
Conditions: Homo sapiens

SMILES | GI50 [µM]
C=C1CC(COc2ccc3ccccc3c2)(c2ccccc2)OC1=O (stereo not given) | 10.5
C=C1CC(COc2ccccc2)(c2ccccc2)OC1=O (stereo not given) | 11.2
C=C1CC(COc2cccc3ccccc23)(c2ccccc2)OC1=O (stereo not given) | 7.76
C=C1CC(COc2cccc3cccnc23)(c2ccccc2)OC1=O (stereo not given) | 12

Tested on: ACHN
Experiment: In vitro anticancer activity against ACHN renal cancer cell line
Format: functional
Conditions: Homo sapiens

GI50 [µM] | SMILES
4.37 | C=C1CC(COc2ccc3ccccc3c2)(c2ccccc2)OC1=O (stereo not given)
1.74 | C=C1CC(COc2ccccc2)(c2ccccc2)OC1=O (stereo not given)
4.37 | C=C1CC(COc2cccc3ccccc23)(c2ccccc2)OC1=O (stereo not given)
1.62 | C=C1CC(COc2cccc3cccnc23)(c2ccccc2)OC1=O (stereo not given)

Tested on: SR
Experiment: In vitro anticancer activity against SR leukemia cancer cell line
Format: functional
Conditions: Homo sapiens

SMILES | GI50 [µM]
C=C1CC(COc2cccc3cccnc23)(c2ccccc2)OC1=O (stereo not given) | 0.245

Tested on: NCI-H322M
Experiment: In vitro anticancer activity against NCI-H322M non-small cell lung cancer cell line; Least sensitive cell
Format: functional
Conditions: Homo sapiens

GI50 [µM] | SMILES
15.8 | C=C1CC(COc2cccc3ccccc23)(c2ccccc2)OC1=O (stereo not given)
14.8 | C=C1CC(COc2cccc3cccnc23)(c2ccccc2)OC1=O (stereo not given)

Tested on: LOX IMVI
Experiment: In vitro anticancer activity against LOX IMVI melanoma cancer cell line; Most sensitive cell
Format: functional
Conditions: Homo sapiens

SMILES | GI50 [µM]
C=C1CC(COc2ccc3ccccc3c2)(c2ccccc2)OC1=O (stereo not given) | 1.45
C=C1CC(COc2ccccc2)(c2ccccc2)OC1=O (stereo not given) | 1.51

Tested on: PC-3
Experiment: In vitro anticancer activity against PC-3 prostate cancer cell line
Format: functional
Conditions: Homo sapiens

GI50 [µM] | SMILES
6.46 | C=C1CC(COc2ccc3ccccc3c2)(c2ccccc2)OC1=O (stereo not given)
2.14 | C=C1CC(COc2ccccc2)(c2ccccc2)OC1=O (stereo not given)
4.07 | C=C1CC(COc2cccc3ccccc23)(c2ccccc2)OC1=O (stereo not given)
1.58 | C=C1CC(COc2cccc3cccnc23)(c2ccccc2)OC1=O (stereo not given)

Tested on: U-251
Experiment: In vitro anticancer activity against U-251 CNS cancer cell line
Format: functional
Conditions: Homo sapiens

GI50 [µM] | SMILES
2.82 | C=C1CC(COc2ccc3ccccc3c2)(c2ccccc2)OC1=O (stereo not given)
3.55 | C=C1CC(COc2cccc3ccccc23)(c2ccccc2)OC1=O (stereo not given)
2.14 | C=C1CC(COc2cccc3cccnc23)(c2ccccc2)OC1=O (stereo not given)

Tested on: SR
Experiment: In vitro anticancer activity against SR leukemia cancer cell line; Most sensitive cell
Format: functional
Conditions: Homo sapiens

SMILES | GI50 [µM]
C=C1CC(COc2cccc3ccccc23)(c2ccccc2)OC1=O (stereo not given) | 0.229

Tested on: COLO 205
Experiment: In vitro anticancer activity against COLO 205 colon cancer cell line
Format: functional
Conditions: Homo sapiens

GI50 [µM] | SMILES
1.95 | C=C1CC(COc2ccc3ccccc3c2)(c2ccccc2)OC1=O (stereo not given)
1.74 | C=C1CC(COc2ccccc2)(c2ccccc2)OC1=O (stereo not given)
3.16 | C=C1CC(COc2cccc3ccccc23)(c2ccccc2)OC1=O (stereo not given)
1.51 | C=C1CC(COc2cccc3cccnc23)(c2ccccc2)OC1=O (stereo not given)

Tested on: RPMI-8226
Experiment: In vitro anticancer activity against RPMI-8226 Leukemia cancer cell line
Format: functional
Conditions: Homo sapiens

GI50 [µM] | SMILES
2.24 | C=C1CC(COc2ccc3ccccc3c2)(c2ccccc2)OC1=O (stereo not given)
1.95 | C=C1CC(COc2ccccc2)(c2ccccc2)OC1=O (stereo not given)

Tested on: Hs-578T
Experiment: In vitro anticancer activity against Hs 578.T breast cancer cell line
Format: functional
Conditions: Homo sapiens

SMILES | GI50 [µM]
C=C1CC(COc2ccc3ccccc3c2)(c2ccccc2)OC1=O (stereo not given) | 3.89
C=C1CC(COc2ccccc2)(c2ccccc2)OC1=O (stereo not given) | 11.7
C=C1CC(COc2cccc3ccccc23)(c2ccccc2)OC1=O (stereo not given) | 6.92
C=C1CC(COc2cccc3cccnc23)(c2ccccc2)OC1=O (stereo not given) | 1.48

Tested on: RPMI-8226
Experiment: In vitro anticancer activity against RPMI-8226 leukemia cancer cell line; Most sensitive cell
Format: functional
Conditions: Homo sapiens

GI50 [µM] | SMILES
0.0199 | C=C1CC(COc2cccc3cccnc23)(c2ccccc2)OC1=O (stereo not given)

Tested on: DU-145
Experiment: In vitro anticancer activity against DU-145 prostate cancer cell line
Format: functional
Conditions: Homo sapiens

GI50 [µM] | SMILES
12 | C=C1CC(COc2ccc3ccccc3c2)(c2ccccc2)OC1=O (stereo not given)
15.1 | C=C1CC(COc2ccccc2)(c2ccccc2)OC1=O (stereo not given)
11.2 | C=C1CC(COc2cccc3ccccc23)(c2ccccc2)OC1=O (stereo not given)
3.8 | C=C1CC(COc2cccc3cccnc23)(c2ccccc2)OC1=O (stereo not given)

Tested on: SR
Experiment: In vitro anticancer activity against SR Leukemia cancer cell line
Format: functional
Conditions: Homo sapiens

SMILES | GI50 [µM]
C=C1CC(COc2ccc3ccccc3c2)(c2ccccc2)OC1=O (stereo not given) | 3.31
C=C1CC(COc2ccccc2)(c2ccccc2)OC1=O (stereo not given) | 3.24

Tested on: HOP-62
Experiment: In vitro anticancer activity against HOP-62 non-small cell lung cancer cell line
Format: functional
Conditions: Homo sapiens

SMILES | GI50 [µM]
C=C1CC(COc2cccc3ccccc23)(c2ccccc2)OC1=O (stereo not given) | 15.5

Tested on: RPMI-8226
Experiment: In vitro anticancer activity against RPMI-8226 leukemia cancer cell line
Format: functional
Conditions: Homo sapiens

GI50 [µM] | SMILES
2.29 | C=C1CC(COc2cccc3ccccc23)(c2ccccc2)OC1=O (stereo not given)

Tested on: Malme-3M
Experiment: In vitro anticancer activity against MALME-3M melanoma cancer cell line
Format: functional
Conditions: Homo sapiens

SMILES | GI50 [µM]
C=C1CC(COc2ccc3ccccc3c2)(c2ccccc2)OC1=O (stereo not given) | 3.39
C=C1CC(COc2ccccc2)(c2ccccc2)OC1=O (stereo not given) | 10.5
C=C1CC(COc2cccc3ccccc23)(c2ccccc2)OC1=O (stereo not given) | 2.88
C=C1CC(COc2cccc3cccnc23)(c2ccccc2)OC1=O (stereo not given) | 1.51

Tested on: U-251
Experiment: In vitro anticancer activity against U-251 CNS cancer cell line; Least sensitive cell
Format: functional
Conditions: Homo sapiens

GI50 [µM] | SMILES
17.4 | C=C1CC(COc2ccccc2)(c2ccccc2)OC1=O (stereo not given)

Tested on: HOP-62
Experiment: In vitro anticancer activity against HOP-62 non-smallcell lung cancer cell line; Least sensitive cell
Format: functional
Conditions: Homo sapiens

SMILES | GI50 [µM]
C=C1CC(COc2ccc3ccccc3c2)(c2ccccc2)OC1=O (stereo not given) | 18.2

Tested on: TK-10
Experiment: In vitro anticancer activity against TK-10 renal cancer cell line
Format: functional
Conditions: Homo sapiens

SMILES | GI50 [µM]
C=C1CC(COc2ccc3ccccc3c2)(c2ccccc2)OC1=O (stereo not given) | 2.88
C=C1CC(COc2ccccc2)(c2ccccc2)OC1=O (stereo not given) | 3.16
C=C1CC(COc2cccc3ccccc23)(c2ccccc2)OC1=O (stereo not given) | 10.5
C=C1CC(COc2cccc3cccnc23)(c2ccccc2)OC1=O (stereo not given) | 1.66

Tested on: IGROV-1
Experiment: In vitro anticancer activity against IGROV1 ovarian cancer cell line
Format: functional
Conditions: Homo sapiens

SMILES | GI50 [µM]
C=C1CC(COc2ccc3ccccc3c2)(c2ccccc2)OC1=O (stereo not given) | 1.55
C=C1CC(COc2ccccc2)(c2ccccc2)OC1=O (stereo not given) | 14.1
C=C1CC(COc2cccc3ccccc23)(c2ccccc2)OC1=O (stereo not given) | 1.62
C=C1CC(COc2cccc3cccnc23)(c2ccccc2)OC1=O (stereo not given) | 1.55

Tested on: SW-620
Experiment: In vitro anticancer activity against SW-620 colon cancer cell line
Format: functional
Conditions: Homo sapiens

GI50 [µM] | SMILES
1.91 | C=C1CC(COc2ccc3ccccc3c2)(c2ccccc2)OC1=O (stereo not given)
1.95 | C=C1CC(COc2ccccc2)(c2ccccc2)OC1=O (stereo not given)
1.55 | C=C1CC(COc2cccc3ccccc23)(c2ccccc2)OC1=O (stereo not given)
1.07 | C=C1CC(COc2cccc3cccnc23)(c2ccccc2)OC1=O (stereo not given)

Tested on: LOX IMVI
Experiment: In vitro anticancer activity against LOX IMVI melanoma cancer cell line
Format: functional
Conditions: Homo sapiens

SMILES | GI50 [µM]
C=C1CC(COc2cccc3ccccc23)(c2ccccc2)OC1=O (stereo not given) | 1.35
C=C1CC(COc2cccc3cccnc23)(c2ccccc2)OC1=O (stereo not given) | 1.35

Tested on: NCI-H322M
Experiment: In vitro anticancer activity against NCI-H322M non-small cell lung cancer cell line
Format: functional
Conditions: Homo sapiens

GI50 [µM] | SMILES
12.9 | C=C1CC(COc2ccc3ccccc3c2)(c2ccccc2)OC1=O (stereo not given)
15.5 | C=C1CC(COc2ccccc2)(c2ccccc2)OC1=O (stereo not given)

Tested on: HOP-62
Experiment: In vitro anticancer activity against HOP-62 non-smallcell lung cancer cell line
Format: functional
Conditions: Homo sapiens

SMILES | GI50 [µM]
C=C1CC(COc2ccccc2)(c2ccccc2)OC1=O (stereo not given) | 14.8
C=C1CC(COc2cccc3cccnc23)(c2ccccc2)OC1=O (stereo not given) | 5.13

Tested on: SK-OV-3
Experiment: In vitro anticancer activity against SK-OV-3 ovarian cancer cell line
Format: functional
Conditions: Homo sapiens

GI50 [µM] | SMILES
7.59 | C=C1CC(COc2ccc3ccccc3c2)(c2ccccc2)OC1=O (stereo not given)
7.41 | C=C1CC(COc2cccc3ccccc23)(c2ccccc2)OC1=O (stereo not given)
9.33 | C=C1CC(COc2cccc3cccnc23)(c2ccccc2)OC1=O (stereo not given)

Tested on: MDA-MB-435
Experiment: In vitro anticancer activity against MDA-MB-435 breast cancer cell line
Format: functional
Conditions: Homo sapiens

GI50 [µM] | SMILES
2.88 | C=C1CC(COc2ccc3ccccc3c2)(c2ccccc2)OC1=O (stereo not given)
7.41 | C=C1CC(COc2ccccc2)(c2ccccc2)OC1=O (stereo not given)
1.74 | C=C1CC(COc2cccc3ccccc23)(c2ccccc2)OC1=O (stereo not given)
2.14 | C=C1CC(COc2cccc3cccnc23)(c2ccccc2)OC1=O (stereo not given)

Tested on: not listed separately
Experiment: Ratio of the least sensitive cell to the most sensitive cell
Format: functional
Conditions: not given

SMILES | Ratio
C=C1CC(COc2ccc3ccccc3c2)(c2ccccc2)OC1=O (stereo not given) | 1.1
C=C1CC(COc2ccccc2)(c2ccccc2)OC1=O (stereo not given) | 1.06
C=C1CC(COc2cccc3ccccc23)(c2ccccc2)OC1=O (stereo not given) | 1.84
C=C1CC(COc2cccc3cccnc23)(c2ccccc2)OC1=O (stereo not given) | 2.87
